Reference: patent US8501713B2, “Drug combinations for the treatment of duchenne muscular dystrophy” (Summit Corporation PLC, priority 2007, dated 2013)

Tested on: Utrophin A promoter linked to a luciferase reporter gene
Assay: Luciferase reporter assay (murine H2K cells)
Format: cell-based
Details: Mus musculus, H2K mdx, luciferase level relative to control; H2K/mdx/Utro A reporter cells; compound 10 μM final concentration; read-out: Activity
Description: 1. Luciferase Reporter Assay (Murine H2K Cells)
The cell line used for the screen is an immortalized mdx mouse H2K cell line that has been stably transfected with a plasmid containing […] fragment of the Utrophin A promoter including the first untranslated exon linked to a luciferase reporter gene. Under conditions of low temperature and interferon containing media, the cells remain as myoblasts. These are plated into 96 well plates and cultured in the presence of compound for three days. The level of luciferase is then determined by cell lysis and reading of the light output from the expressed luciferase gene utilising a plate luminometer.
H2K/mdx/Utro A reporter Cell Line Maintenance
The cells were grown at 33° C. in the presence of 10% CO2. To remove the myoblasts for platting, they were incubated with Trypsin EDTA until the monolayer started to detach.
The plates were then incubated at 33° C. in the presence of 10% CO2 for 24 hrs. Compounds were dosed by adding 10 μl of diluted compound to each well giving a final concentration of 10 μM. The plates were then incubated for a further 48 hrs. Cells were then lysed in situ following the manufacture's protocols (Promega Steady-Glo Luciferase Assay System (E2520). Then counted for 10 seconds using a plate luminometer (Victor1420).
Compounds for screening were stored at −20° C. as 10 mM stocks in 100% DMSO until required.
Biological activity as assessed using the luciferase reporter assay in murine H2K cells, and is classified as follows: […]

SMILES	activity at 10 µM [%]
Cc1ccc(C(=O)Nc2ccc3oc(-c4cccnc4)nc3c2)cc1 [Example 41, 4-methyl-N-(2-(pyridin-3-yl)benzo[d]oxazol-5-yl)benzamide]	< 200
COc1ccc(C(=O)Nc2ccc3oc(-c4cccnc4)nc3c2)cc1 [Example 42, 4-methoxy-N-(2-(pyridin-3-yl)benzo[d]oxazol-5-yl)benzamide]	< 200
COc1ccccc1C(=O)Nc1ccc2oc(-c3cccnc3)nc2c1 [Example 43, 2-methoxy-N-(2-(pyridin-3-yl)benzo[d]oxazol-5-yl)benzamide]	< 200
CN(C)c1ccc(C(=O)Nc2ccc3oc(-c4cccnc4)nc3c2)cc1 [Example 44, 4-(dimethylamino)-N-(2-(pyridin-3-yl)benzo[d]oxazol-5-yl)benzamide]	< 200
O=C(Nc1ccc2oc(-c3cccnc3)nc2c1)c1ccc(Cl)c(Cl)c1 [Example 45, 3,4-dichloro-N-(2-(pyridin-3-yl)benzo[d]oxazol-5-yl)benzamide]	< 200
O=C(Nc1ccc2oc(-c3cccnc3)nc2c1)c1ccc(C(F)(F)F)cc1 [Example 46, N-(2-(pyridin-3-yl)benzo[d]oxazol-5-yl)-4-(trifluoromethyl)benzamide]	< 200
O=C(Nc1ccc2oc(-c3cccnc3)nc2c1)c1cc(Cl)cc(Cl)c1 [Example 47, 3,5-dichloro-N-(2-(pyridin-3-yl)benzo[d]oxazol-5-yl)benzamide]	< 200
O=C(Nc1ccc2oc(-c3cccnc3)nc2c1)c1ccc(F)cc1 [Example 48, 4-fluoro-N-(2-(pyridin-3-yl)benzo[d]oxazol-5-yl)benzamide]	< 200
O=C(Nc1ccc2oc(-c3cccnc3)nc2c1)c1ccc(-c2ccccc2)cc1 [Example 49, N-(2-(pyridin-3-yl)benzo[d]oxazol-5-yl)biphenyl-4-carboxamide]	< 200
O=C(Cc1ccccc1)Nc1ccc2oc(-c3cccnc3)nc2c1 [Example 50, 2-phenyl-N-(2-(pyridin-3-yl)benzo[d]oxazol-5-yl)acetamide]	< 200
O=C(CCc1ccccc1)Nc1ccc2oc(-c3cccnc3)nc2c1 [Example 51, 3-phenyl-N-(2-(pyridin-3-yl)benzo[d]oxazol-5-yl)propanamide]	< 200
O=C(C=Cc1ccccc1)Nc1ccc2oc(-c3cccnc3)nc2c1 [Example 52, N-(2-(pyridin-3-yl)benzo[d]oxazol-5-yl)cinnamamide]	< 200
CCC(=O)Nc1ccc2oc(-c3cccnc3)nc2c1 [Example 53, N-(2-(pyridin-3-yl)benzo[d]oxazol-5-yl)propionamide]	< 200
CCCC(=O)Nc1ccc2oc(-c3cccnc3)nc2c1 [Example 54, N-(2-(pyridin-3-yl)benzo[d]oxazol-5-yl)butyramide]	< 200
CCCCC(=O)Nc1ccc2oc(-c3cccnc3)nc2c1 [Example 55, N-(2-(pyridin-3-yl)benzo[d]oxazol-5-yl)pentanamide]	< 200
CC(C)C(=O)Nc1ccc2oc(-c3cccnc3)nc2c1 [Example 56, N-(2-(pyridin-3-yl)benzo[d]oxazol-5-yl)isobutyramide]	201 to 300
O=C(Nc1ccc2oc(-c3cccnc3)nc2c1)c1ccco1 [Example 57, N-(2-(pyridin-3-yl)benzo[d]oxazol-5-yl)furan-2-carboxamide]	< 200
O=C(Nc1ccc2oc(-c3ccccc3)nc2c1)c1ccccc1 [Example 59, N-(2-phenylbenzo[d]oxazol-5-yl)benzamide]	201 to 300
CCN(CC)c1ccc(-c2nc3cc(NC(=O)c4cccnc4)ccc3o2)cc1 [Example 60, N-(2-(4-(diethylamino)phenyl)benzo[d]oxazol-5-yl)nicotinamide]	201 to 300
CCN(CC)c1ccc(-c2nc3cc(NC(=O)c4ccncc4)ccc3o2)cc1 [Example 61, N-(2-(4-(diethylamino)phenyl)benzo[d]oxazol-5-yl)isonicotinamide]	< 200
CCN(CC)c1ccc(-c2nc3cc(NC(=O)c4ccccc4)ccc3o2)cc1 [Example 62, N-(2-(4-(diethylamino)phenyl)benzo[d]oxazol-5-yl)benzamide]	< 200
CCN(CC)c1ccc(-c2nc3cc(NC(=O)c4ccc(Cl)cc4)ccc3o2)cc1 [Example 63, 4-chloro-N-(2-(4-(diethylamino)phenyl)benzo[d]oxazol-5-yl)benzamide]	< 200
CCN(CC)c1ccc(-c2nc3cc(NC(=O)c4ccc(C)cc4)ccc3o2)cc1 [Example 64, N-(2-(4-(diethylamino)phenyl)benzo[d]oxazol-5-yl)-4-methylbenzamide]	< 200

SMILES	activity at 10 µM [%]
CCN(CC)c1ccc(-c2nc3cc(NC(=O)c4ccc(OC)cc4)ccc3o2)cc1 [Example 65, N-(2-(4-(diethylamino)phenyl)benzo[d]oxazol-5-yl)-4-methoxybenzamide]	< 200
CCN(CC)c1ccc(-c2nc3cc(NC(=O)c4ccccc4OC)ccc3o2)cc1 [Example 66, N-(2-(4-(diethylamino)phenyl)benzo[d]oxazol-5-yl)-2-methoxybenzamide]	< 200
CCN(CC)c1ccc(-c2nc3cc(NC(=O)c4ccc(N(C)C)cc4)ccc3o2)cc1 [Example 67, N-(2-(4-(diethylamino)phenyl)benzo[d]oxazol-5-yl)-4-(dimethylamino)benzamide]	201 to 300
CCN(CC)c1ccc(-c2nc3cc(NC(=O)c4ccc(Cl)c(Cl)c4)ccc3o2)cc1 [Example 68, 3,4-dichloro-N-(2-(4-(diethylamino)phenyl)benzo[d]oxazol-5-yl)benzamide]	< 200
CCN(CC)c1ccc(-c2nc3cc(NC(=O)c4ccc(C(F)(F)F)cc4)ccc3o2)cc1 [Example 69, N-(2-(4-(diethylamino)phenyl)benzo[d]oxazol-5-yl)-4-(trifluoromethyl)benzamide]	< 200
CCN(CC)c1ccc(-c2nc3cc(NC(=O)c4cc(Cl)cc(Cl)c4)ccc3o2)cc1 [Example 70, 3,5-dichloro-N-(2-(4-(diethylamino)phenyl)benzo[d]oxazol-5-yl)benzamide]	< 200
CCN(CC)c1ccc(-c2nc3cc(NC(=O)c4ccc(F)cc4)ccc3o2)cc1 [Example 71, N-(2-(4-(diethylamino)phenyl)benzo[d]oxazol-5-yl)-4-fluorobenzamide]	< 200
CCN(CC)c1ccc(-c2nc3cc(NC(=O)c4ccc(-c5ccccc5)cc4)ccc3o2)cc1 [Example 72, N-(2-(4-(diethylamino)phenyl)benzo[d]oxazol-5-yl)biphenyl-4-carboxamide]	< 200
CCN(CC)c1ccc(-c2nc3cc(NC(=O)Cc4ccccc4)ccc3o2)cc1 [Example 73, N-(2-(4-(diethylamino)phenyl)benzo[d]oxazol-5-yl)-2-phenylacetamide]	201 to 300
CCN(CC)c1ccc(-c2nc3cc(NC(=O)CCc4ccccc4)ccc3o2)cc1 [Example 74, N-(2-(4-(diethylamino)phenyl)benzo[d]oxazol-5-yl)-3-phenylpropanamide]	< 200
CCC(=O)Nc1ccc2oc(-c3ccc(N(CC)CC)cc3)nc2c1 [Example 75, N-(2-(4-(diethylamino)phenyl)benzo[d]oxazol-5-yl)propionamide]	201 to 300
CCCC(=O)Nc1ccc2oc(-c3ccc(N(CC)CC)cc3)nc2c1 [Example 76, N-(2-(4-(diethylamino)phenyl)benzo[d]oxazol-5-yl)butyramide]	< 200
CCCCC(=O)Nc1ccc2oc(-c3ccc(N(CC)CC)cc3)nc2c1 [Example 77, N-(2-(4-(diethylamino)phenyl)benzo[d]oxazol-5-yl)pentanamide]	201 to 300
CCN(CC)c1ccc(-c2nc3cc(NC(=O)C(C)C)ccc3o2)cc1 [Example 78, N-(2-(4-(diethylamino)phenyl)benzo[d]oxazol-5-yl)isobutyramide]	< 200
CCN(CC)c1ccc(-c2nc3cc(NC(=O)c4cccs4)ccc3o2)cc1 [Example 79, N-(2-(4-(diethylamino)phenyl)benzo[d]oxazol-5-yl)thiophene-2-carboxamide]	< 200
CCCc1ccc2oc(-c3cccc(C(=O)O)c3)nc2c1 [Example 80, 3-(5-propylbenzo[d]oxazol-2-yl)benzoic acid]	< 200
O=C(Nc1ccc2oc(-c3cccnc3)nc2c1)c1cccnc1 [Example 81, N-(2-(pyridin-3-yl)benzo[d]oxazol-5-yl)nicotinamide]	< 200
Nc1ccc(-c2nc3cc(N)ccc3o2)c(O)c1 [Example 82, 5-amino-2-(5-aminobenzo[d]oxazol-2-yl)phenol]	201 to 300
COc1ccc(C(=O)Nc2ccc3oc(-c4ccc(OC)cc4)nc3c2)cc1 [Example 83, 4-methoxy-N-(2-(4-methoxyphenyl)benzo[d]oxazol-5-yl)benzamide]	< 200
CCS(=O)(=O)c1ccc2oc(-c3ccccc3)nc2c1 [Example 84, 5-(ethylsulfonyl)-2-phenylbenzo[d]oxazole]	201 to 300
c1ccc(-c2ccc3oc(-c4ccccc4)nc3c2)cc1 [Example 85, 2,5-diphenylbenzo[d]oxazole]	301 to 400
c1ccc(-c2nc3c(ccc4ccccc43)o2)cc1 [Example 86, 2-phenylnaphtho[1,2-d]oxazole]	301 to 400
